In paper PMC4306947, “Synthesis and Antiproliferative Activity of Thiazolyl-bis-pyrrolo[2,3-b]pyridines and Indolyl-thiazolyl-pyrrolo[2,3-c]pyridines, Nortopsentin Analogues” (Marine Drugs, 2015):
Where two headings read alike, the source gives them in different places.

What was measured:
PC-3 = assay: NCI-60 in vitro tumor cell screen, PC-3; format: cell-based; conditions: Homo sapiens; PC-3, Prostate Cancer
Method: (§1) All the synthesized thiazoles 1a–l, 2a–j, 3a–f and 4a–f were evaluated by the National Cancer Institute (Bethesda MD) for cytotoxicity against the NCI-60 cell line panel using standard protocols. Initially, all derivatives were tested at a single dose (10^−5 M) on the full panel of approximately 60 human tumor cell lines derived from 9 human cancer cell types, that have been grouped in disease sub-panels including leukemia, non-small-cell lung, colon, central nervous system (CNS), melanoma, ovarian, renal, prostate and breast cancers (data not shown). Compounds 1k and 4c were further selected for full evaluation at five concentration levels (10^−4–10^−8 M).
(§2) The antitumor activity of compounds 1k and 4c was given by three parameters for each cell line: GI50 (GI50 is the molar concentration of the compound that inhibits 50% net cell growth), TGI (TGI is the molar concentration of the compound leading to total inhibition of net cell growth), and LC50 (LC50 is the molar concentration of the compound that induces 50% net cell death). The average values of mean graph midpoint (MG_MID) were calculated for each of these parameters.

MCF7 = assay: NCI-60 in vitro tumor cell screen, MCF7; format: cell-based; conditions: Homo sapiens; MCF7, Breast Cancer
Method: as §1, §2

HL-60(TB) = assay: NCI-60 in vitro tumor cell screen, HL-60(TB); format: cell-based; conditions: Homo sapiens, Leukemia
Method: as §1, §2

KM12 = assay: NCI-60 in vitro tumor cell screen, KM12; format: cell-based; conditions: Homo sapiens; KM12, Colon Cancer
Method: as §1, §2

OVCAR-5 = assay: NCI-60 in vitro tumor cell screen, OVCAR-5; format: cell-based; conditions: Homo sapiens; OVCAR-5, Ovarian Cancer
Method: as §1, §2

HS 578T = assay: NCI-60 in vitro tumor cell screen, HS 578T; format: cell-based; conditions: Homo sapiens, Breast Cancer
Method: as §1, §2

CAKI-1 = assay: NCI-60 in vitro tumor cell screen, CAKI-1; format: cell-based; conditions: Homo sapiens; CAKI-1, Renal Cancer
Method: as §1, §2

OVCAR-4 = assay: NCI-60 in vitro tumor cell screen, OVCAR-4; format: cell-based; conditions: Homo sapiens; OVCAR-4, Ovarian Cancer
Method: as §1, §2

786-0 = assay: NCI-60 in vitro tumor cell screen, 786-0; format: cell-based; conditions: Homo sapiens; 786-0, Renal Cancer
Method: as §1, §2

TK-10 = assay: NCI-60 in vitro tumor cell screen, TK-10; format: cell-based; conditions: Homo sapiens; TK-10, Renal Cancer
Method: as §1, §2

[1] = system: intestinal normal-like differentiated Caco-2 cells; assay: MTT viability assay, differentiated Caco-2 cells, 24 h; format: cell-based, human; conditions: range 5 to 100 μM
Method: (§3) Nortopsentin analogues, prepared as described above, were dissolved in dimethyl sulfoxide (DMSO) and then diluted in culture medium to have a DMSO concentration not exceeding 0.1%. HCT-116 and Caco-2 cell lines were purchased from American Type Culture Collection, Rockville, MD, USA and DMEM supplemented with […], […] bovine serum (FBS), penicillin (100 U/mL), streptomycin (100 μg/mL) and gentamicin (5 μg/mL). Cells were maintained in log phase by seeding twice a week at a density of 3 × 10^8 cells/L in humidified 5% CO2 atmosphere, at 37 °C. In all experiments, HCT-116 cells were made quiescent through overnight incubation before treatment with tested compounds or vehicle alone (control cells), while Caco-2 cells were treated 15 days after confluence, at which time the cells are differentiated in normal intestinal-like cells. […]
(§4) Cytotoxic activity of the nortopsentin derivatives 1k and 4c was determined by the colorimetric assay based on the reduction of […] (MTT) to purple formazan by mitochondrial dehydrogenases. […] Cells were incubated 2 h at 37 °C, then medium was discarded by centrifugation, formazan blue formed in the cells dissolved in DMSO, and absorbance measured at 570 nm in a microplate reader (Bio-RAD, Hercules, CA, USA). […] GI50 was calculated by the curve of percent viability vs. concentration. […]

OVCAR-8 = assay: NCI-60 in vitro tumor cell screen, OVCAR-8; format: cell-based; conditions: Homo sapiens; OVCAR-8, Ovarian Cancer
Method: as §1, §2

NCI-60 cell line panel = assay: NCI-60 cell line panel, summary over the full panel or subpanel; format: cell-based, human; conditions: for GI50: Homo sapiens
Method: as §1, §2

SK-MEL-5 = assay: NCI-60 in vitro tumor cell screen, SK-MEL-5; format: cell-based; conditions: Homo sapiens; SK-MEL-5, Melanoma
Method: as §1, §2

RXF393 = assay: NCI-60 in vitro tumor cell screen, RXF393; format: cell-based; conditions: Homo sapiens, RXF 393; RXF393, Renal Cancer
Method: as §1, §2

HCT-116 cells = assay: Mitochondrial transmembrane potential (DiOC6 flow cytofluorometry); format: cell-based, human; conditions: 24 h
Method: Changes of mitochondrial transmembrane potential (Δψm) were assessed by flow cytofluorometry, using the cationic lipophilic dye 3,3′-dihexyloxacarbocyanine iodide(3) (DiOC6) (Molecular Probes, Inc., Life Technologies Italia, Monza, Italy) which accumulates in the mitochondrial matrix. Changes in mitochondrial membrane potential are indicated by a reduction in the DiOC6-induced fluorescence intensity. After 24 h treatment, HCT116 cells were incubated with DiOC6 at a 40 nmol/L final concentration, for 15 min at 37 °C. After centrifugation, cells were washed with PBS and suspended in 500 μL PBS. Fluorescent intensities were analysed in at least 1 × 10^4 cells for each sample.

SNB-19 = assay: NCI-60 in vitro tumor cell screen, SNB-19; format: cell-based; conditions: Homo sapiens; SNB-19, CNS Cancer
Method: as §1, §2

[2] = system: HCT-116 colorectal carcinoma cells; assay: MTT viability assay, HCT-116 cells, 24 h; format: cell-based; conditions: Homo sapiens, 5–100 μM, read-out: GI50 after 24 h treatment
Method: as §3, §4

MDA-MB-468 = assay: NCI-60 in vitro tumor cell screen, MDA-MB-468; format: cell-based; conditions: Homo sapiens; MDA-MB-468, Breast Cancer
Method: as §1, §2

HCT-116 = assay: NCI-60 in vitro tumor cell screen, HCT-116; format: cell-based; conditions: Homo sapiens; HCT-116, Colon Cancer; measured by NCI after 72 h treatment
Method: as §1, §2

RPMI-8226 = assay: NCI-60 in vitro tumor cell screen, RPMI-8226; format: cell-based; conditions: Homo sapiens; RPMI-8226, Leukemia
Method: as §1, §2

SF-539 = assay: NCI-60 in vitro tumor cell screen, SF-539; format: cell-based; conditions: Homo sapiens; SF-539, CNS Cancer
Method: as §1, §2

[3] = mean over the NCI full panel, read-out: GI50 mean value
[4] = range over the NCI full panel, read-out: GI50 values against most of the human cell lines (range)
[5] = concentration GI30, control 3.9%
[6] = concentration GI70, control 3.9%

SMILES	GI50 (PC-3) [µM]	GI50 (MCF7) [µM]	GI50 (HL-60(TB)) [µM]	GI50 (KM12) [µM]	GI50 (OVCAR-5) [µM]	GI50 (HS 578T) [µM]	GI50 (CAKI-1) [µM]	GI50 (OVCAR-4) [µM]	GI50 (786-0) [µM]	GI50 (TK-10) [µM]	effect on cell viability [1]	GI50 (OVCAR-8) [µM]	GI50 (NCI-60 cell line panel; [3]) [µM]	GI50 (NCI-60 cell line panel; [4]) [µM]	percentage of sensitive cell lines out of the total number of cell lines investigated (NCI-60 cell line panel; NCI full panel) [%]	GI50 (SK-MEL-5) [µM]	GI50 (RXF393) [µM]	mitochondrial transmembrane potential (Δψm) loss, AQ (HCT-116 cells; [5]) [%]	mitochondrial transmembrane potential (Δψm) loss, AQ (HCT-116 cells; [6]) [%]	GI50 (SNB-19) [µM]	other results
Cn1cc(-c2csc(-c3c[nH]c4ncccc34)n2)c2cc(Br)cnc21 [Compound 1k, 5-Bromo-1-methyl-3-[2-(1H-pyrrolo[2,3-b]pyridin-3-yl)-1,3-thiazol-4-yl]-1H-pyrrolo[2,3-b]pyridine]	4.35	6.77	> 100	5.7	> 100	2.43	1.56	2.03	9.65	3.77	did not affect the differentiated Caco-2 cell viability	3.72	5.26	0.81 to 27.7	89	2.05	2.05	26.0	35.3	6.74	GI50 [2]: 33.5 ± 2.31 µM; GI50 (MDA-MB-468): 0.81 µM; GI50 (HCT-116): 2.91 µM; GI50 (RPMI-8226): > 100 µM; GI50 (SF-539): 27.7 µM
Clc1nccc2c(-c3csc(-c4c[nH]c5ccc(Br)cc45)n3)c[nH]c12 [Compound 4c, 3-[2-(5-Bromo-1H-indol-3-yl)-1,3-thiazol-4-yl]-7-chloro-1H-pyrrolo[2,3-c]pyridine]	3.86	2.2	2.64	2.15	3.14	3.7	1.96	3.25	1.37	4.16	did not affect the differentiated Caco-2 cell viability	3.65	2.59	0.93 to 4.7	100	2.61	1.48	3.8	14.7	3.25	GI50 (NCI-60 cell line panel; all renal cancer subpanel cell lines, read-out: GI50 range, renal cancer subpanel): 0.93 to 4.16 µM; percentage of cell lines with positive LC50 values (NCI-60 cell line panel; NCI full panel, data not shown): 81%; percentage of cell lines with positive TGI values (NCI-60 cell line panel; NCI full panel, data not shown): 98%; GI50 [2]: 13.2 ± 0.95 µM; GI50 (MDA-MB-468): 1.18 µM; GI50 (HCT-116): 2.35 µM; GI50 (RPMI-8226): 4.03 µM; GI50 (SF-539): 1.87 µM
